How the values were obtained:
[1] = tested on: morningglory; assay: Test C pre-/postemergence test; format: in vivo, Ipomoea coccinea
Procedure, shortened: (§1)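 Test chemicals were formulated with surfactant in a non-phytotoxic solvent and sprayed both on freshly planted seeds (preemergence) and on 1- to 4-leaf plants of 2–18 cm (postemergence). Flooded-paddy pots received compound directly into 3 cm of standing water, maintained for the test.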

[2] = tested on: crabgrass; assay: Test C pre-/postemergence test; format: in vivo, Digitaria sanguinalis
Procedure, shortened: as §1

[3] = tested on: giant foxtail; assay: Test A pre-/postemergence greenhouse test; format: in vivo, Setaria faberi; conditions: for Foxtail, Giant plant response rating: 0 to 100 scale
Procedure, shortened: (§2)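 Planting was into mixed loam soil and sand; preemergence treatment followed as a directed soil spray. Concurrently, emerged plants (one- to two-leaf, 2–10 cm) received postemergence applications of identically formulated compound (non-phytotoxic solvent, surfactant). After approximately ten days under greenhouse conditions, injury was judged by eye against untreated plants.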

[4] = tested on: lambsquarters; assay: Test C pre-/postemergence test; format: in vivo, Chenopodium album
Procedure, shortened: as §1

[5] = tested on: Surinam grass; assay: Test C pre-/postemergence test; format: in vivo, Brachiaria decumbens
Procedure, shortened: as §1

[6] = tested on: soybean; assay: Test C pre-/postemergence test; format: in vivo, Glycine max
Procedure, shortened: as §1

[7] = tested on: bermudagrass; assay: Test C pre-/postemergence test; format: in vivo, Cynodon dactylon
Procedure, shortened: as §1

[8] = tested on: corn; assay: Test A pre-/postemergence greenhouse test; format: in vivo, Zea mays; conditions: for Corn plant response rating: 0 to 100 scale
Procedure, shortened: as §2

[9] = tested on: catchweed bedstraw; assay: Test C pre-/postemergence test; format: in vivo, Galium aparine
Procedure, shortened: as §1

[10] = tested on: pigweed; assay: Test C pre-/postemergence test; format: in vivo, Amaranthus retroflexus
Procedure, shortened: as §1

[11] = tested on: rice; assay: Test C flooded paddy test; format: in vivo, Oryza sativa; conditions: Flood
Procedure, shortened: (§3)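 Flooded 3 cm over soil; compound into paddy water; depth kept constant. Greenhouse 13–15 d.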

[12] = tested on: downy brome; assay: Test C pre-/postemergence test; format: in vivo, Bromus tectorum
Procedure, shortened: as §1

[13] = tested on: barnyardgrass; assay: Test C flooded paddy test; format: in vivo, Echinochloa crus-galli; conditions: Flood
Procedure, shortened: as §3

[14] = tested on: giant foxtail; assay: Test C pre-/postemergence test; format: in vivo, Setaria faberii
Procedure, shortened: as §1

[15] = tested on: johnsongrass; assay: Test C pre-/postemergence test; format: in vivo, Sorghum halepense
Procedure, shortened: as §1

[16] = tested on: wheat; assay: Test A pre-/postemergence greenhouse test; format: in vivo, Triticum aestivum; conditions: for Wheat plant response rating: 0 to 100 scale
Procedure, shortened: as §2

[17] = tested on: velvetleaf; assay: Test A pre-/postemergence greenhouse test; format: in vivo, Abutilon theophrasti; conditions: for Velvetleaf plant response rating: 0 to 100 scale
Procedure, shortened: as §2

[18] = 62 g ai/ha, Preemergence, scale 0 to 100
[19] = 125 g ai/ha, preemergence, scale 0 (no effect) to 100 (complete control)
[20] = Preemergence, 31 g ai/ha, scale 0 to 100 (0 no effect, 100 complete control)
[21] = preemergence, 250 g ai/ha, scale 0 (no effect) to 100 (complete control)
[22] = Postemergence, 125 g ai/ha, 0 to 100 scale where 0 is no effect and 100 is complete control
[23] = Postemergence, 500 g ai/ha, 0 is no effect, 100 is complete control
[24] = Preemergence, 125 g ai/ha, 0 no effect, 100 complete control
[25] = Preemergence, 500 g ai/ha, 0 no effect, 100 complete control
[26] = 31 g ai/ha, scale 0 to 100 (0 no effect, 100 complete control)
[27] = 62 g ai/ha, scale 0 to 100 (0 no effect, 100 complete control)
[28] = 125 g ai/ha, scale 0 to 100, 0 no effect, 100 complete control, 13 to 15 days
[29] = 250 g ai/ha, scale 0 to 100, 0 no effect, 100 complete control, 13 to 15 days

**Q.** With CC(C)c1cc[n+]([O-])c([S+]([O-])Cc2c(C(F)(F)F)nn(C)c2OC(F)F)c1 (centres unmarked) [Compound 109] as the molecule, how does the “Morningglory plant response rating” value [1, 18] read?
**A.** Its value is 100.

**Q.** And the “Morningglory plant response rating” value [1, 19]?
**A.** The value was 100.

**Q.** What about the “Plant response rating, Morningglory” value [1, 20] of the same molecule?
**A.** Its value is 80.

**Q.** And the “Morningglory plant response rating” value [1, 21]?
**A.** Its value is 100.

**Q.** And the “Crabgrass, Large plant response rating” value [2, 18]?
**A.** Its value is 100.

**Q.** And the “Crabgrass, Large plant response rating” value [2, 19]?
**A.** The value was 100.

**Q.** And the “Plant response rating, Crabgrass, Large” value [2, 20]?
**A.** The value was 80.

**Q.** What about the “Crabgrass, Large plant response rating” value [2, 21] of the same molecule?
**A.** Its value is 100.

**Q.** What about the “Plant response rating, Foxtail, Giant” value [3, 22] of the same molecule?
**A.** The value was 80.

**Q.** What about the “Foxtail, Giant plant response rating” value [3, 23] of the same molecule?
**A.** The value was 90.

**Q.** What about the “Foxtail, Giant plant response rating” value [3, 24] of the same molecule?
**A.** Its value is 90.

**Q.** And the “Foxtail, Giant plant response rating” value [3, 25]?
**A.** The value was 100.

**Q.** What about the “Lambsquarters plant response rating” value [4, 18] of the same molecule?
**A.** The value was 100.

**Q.** What about the “Lambsquarters plant response rating” value [4, 19] of the same molecule?
**A.** The value was 100.

**Q.** And the “Plant response rating, Lambsquarters” value [4, 20]?
**A.** Its value is 100.

**Q.** What about the “Lambsquarters plant response rating” value [4, 21] of the same molecule?
**A.** Its value is 100.

**Q.** And the “Surinam Grass plant response rating” value [5, 18]?
**A.** Its value is 95.

**Q.** What about the “Surinam Grass plant response rating” value [5, 19] of the same molecule?
**A.** The value was 100.

**Q.** And the “Plant response rating, Surinam Grass” value [5, 20]?
**A.** Its value is 50.

**Q.** What about the “Surinam Grass plant response rating” value [5, 21] of the same molecule?
**A.** Its value is 100.

**Q.** What about the “Soybean plant response rating” value [6, 18] of the same molecule?
**A.** The value was 50.

**Q.** What about the “Soybean plant response rating” value [6, 19] of the same molecule?
**A.** Its value is 85.

**Q.** What about the “Plant response rating, Soybean” value [6, 20] of the same molecule?
**A.** Its value is 45.

**Q.** What about the “Soybean plant response rating” value [6, 21] of the same molecule?
**A.** The value was 95.

**Q.** And the “Bermudagrass plant response rating” value ([7]; 62 g ai/ha, Preemergence, scale 0 to 100 (0 no effect, 100 complete control))?
**A.** The value was 100.

**Q.** What about the “Bermudagrass plant response rating” value [7, 19] of the same molecule?
**A.** The value was 100.

**Q.** What about the “Plant response rating, Bermudagrass” value [7, 20] of the same molecule?
**A.** Its value is 95.

**Q.** And the “Bermudagrass plant response rating” value [7, 21]?
**A.** Its value is 100.

**Q.** What about the “Plant response rating, Corn” value [8, 22] of the same molecule?
**A.** Its value is 60.

**Q.** What about the “Corn plant response rating” value [8, 23] of the same molecule?
**A.** Its value is 80.

**Q.** And the “Corn plant response rating” value [8, 24]?
**A.** The value was 50.

**Q.** And the “Corn plant response rating” value [8, 25]?
**A.** The value was 90.

**Q.** What about the “Galium plant response rating” value [9, 18] of the same molecule?
**A.** Its value is 90.

**Q.** And the “Galium plant response rating” value [9, 19]?
**A.** Its value is 100.

**Q.** What about the “Plant response rating, Galium” value [9, 20] of the same molecule?
**A.** The value was 60.

**Q.** What about the “Galium plant response rating” value [9, 21] of the same molecule?
**A.** The value was 100.

**Q.** What about the “Pigweed plant response rating” value [10, 18] of the same molecule?
**A.** The value was 100.

**Q.** What about the “Pigweed plant response rating” value [10, 19] of the same molecule?
**A.** The value was 100.

**Q.** And the “Plant response rating, Pigweed” value [10, 20]?
**A.** The value was 100.

**Q.** And the “Pigweed plant response rating” value [10, 21]?
**A.** Its value is 100.

**Q.** And the “Plant response rating, Rice” value [11, 26]?
**A.** The value was 0.

**Q.** What about the “Plant response rating, Rice” value [11, 27] of the same molecule?
**A.** Its value is 0.

**Q.** What about the “Plant response rating, Rice” value [11, 28] of the same molecule?
**A.** Its value is 0.

**Q.** And the “Plant response rating, Rice” value [11, 29]?
**A.** The value was 20.

**Q.** What about the “Bromegrass, Downy plant response rating” value [12, 18] of the same molecule?
**A.** Its value is 40.

**Q.** And the “Bromegrass, Downy plant response rating” value [12, 19]?
**A.** Its value is 95.

**Q.** What about the “Plant response rating, Bromegrass, Downy” value [12, 20] of the same molecule?
**A.** The value was 40.

**Q.** What about the “Bromegrass, Downy plant response rating” value [12, 21] of the same molecule?
**A.** The value was 100.

**Q.** What about the “Plant response rating, Barnyardgrass” value [13, 26] of the same molecule?
**A.** Its value is 0.

**Q.** What about the “Plant response rating, Barnyardgrass” value [13, 27] of the same molecule?
**A.** The value was 20.

**Q.** And the “Plant response rating, Barnyardgrass” value [13, 28]?
**A.** The value was 20.

**Q.** What about the “Plant response rating, Barnyardgrass” value [13, 29] of the same molecule?
**A.** Its value is 20.

**Q.** And the “Foxtail, Giant plant response rating” value [14, 18]?
**A.** Its value is 100.

**Q.** What about the “Foxtail, Giant plant response rating” value [14, 19] of the same molecule?
**A.** Its value is 100.

**Q.** And the “Plant response rating, Foxtail, Giant” value [14, 20]?
**A.** Its value is 100.

**Q.** And the “Foxtail, Giant plant response rating” value [14, 21]?
**A.** Its value is 100.

**Q.** What about the “Johnsongrass plant response rating” value [15, 18] of the same molecule?
**A.** The value was 100.

**Q.** And the “Johnsongrass plant response rating” value [15, 19]?
**A.** Its value is 100.

**Q.** And the “Plant response rating, Johnsongrass” value [15, 20]?
**A.** The value was 85.

**Q.** What about the “Johnsongrass plant response rating” value [15, 21] of the same molecule?
**A.** The value was 100.

**Q.** What about the “Plant response rating, Wheat” value [16, 22] of the same molecule?
**A.** Its value is 60.

**Q.** And the “Wheat plant response rating” value [16, 23]?
**A.** Its value is 70.

**Q.** What about the “Wheat plant response rating” value [16, 24] of the same molecule?
**A.** Its value is 60.

**Q.** What about the “Wheat plant response rating” value [16, 25] of the same molecule?
**A.** The value was 100.

**Q.** What about the “Plant response rating, Velvetleaf” value [17, 22] of the same molecule?
**A.** Its value is 60.

**Q.** And the “Velvetleaf plant response rating” value [17, 23]?
**A.** Its value is 80.

**Q.** And the “Velvetleaf plant response rating” value [17, 24]?
**A.** The value was 50.

**Q.** And the “Velvetleaf plant response rating” value [17, 25]?
**A.** Its value is 100.

— patent US20100298141A1, “SUBSTITUTED PYRIDINE N-OXIDE HERBICIDES” (E. I. DU PONT DE NEMOURS AND COMPANY, priority 2007, published 2010)
